Key:
[1] = target: T1, N-formylated peptide receptor on U937 cells (Homo sapiens, UniProt P21462); assay: fMet-Leu-[3H]Phe-binding assay on U937 cells; settings: U937 cells incubated with cytochalasin B
T1 sequence (P21462 1-350): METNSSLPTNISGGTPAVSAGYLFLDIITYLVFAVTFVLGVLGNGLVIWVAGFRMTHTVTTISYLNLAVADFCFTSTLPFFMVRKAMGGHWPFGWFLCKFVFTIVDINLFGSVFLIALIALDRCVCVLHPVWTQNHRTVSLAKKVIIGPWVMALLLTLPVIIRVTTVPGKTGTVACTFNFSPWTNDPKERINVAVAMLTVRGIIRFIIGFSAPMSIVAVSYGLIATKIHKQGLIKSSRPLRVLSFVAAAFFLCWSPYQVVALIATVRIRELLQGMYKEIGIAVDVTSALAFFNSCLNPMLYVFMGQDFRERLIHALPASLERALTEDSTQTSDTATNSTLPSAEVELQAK

[2] = test system: human peripheral blood monocytes; settings: ref M. C. Pike and R. Snyderman. Unpublished observation; cited from earlier work
[3] = test system: U937 cells; assay: Chemotaxis of U937 cells, modified Boyden chambers; assay type: cell-based, human; settings: U937 cells cultured 48 h with lymphokines; Fig. 4

| Compound | effect on amount of fMet-Leu-[3H]Phe bound [1] | potency for human monocyte chemotaxis relative to fMet-Leu-Phe [2] | relative chemotactic potency [3] |
| --- | --- | --- | --- |
| C=C1[C@@H](C)[C@H]2[C@H](Cc3ccccc3)NC(=O)[C@]23OC(=O)/C=C/[C@H](O)CCC[C@@H](C)C/C=C/[C@H]3[C@@H]1O [cytochalasin B] | did not affect | – | – |
| N-formyl-norleucyl-leucyl-phenylalanine [fNle-Leu-Phe] | – | less than that of fMet-Leu-Phe | approximately equipotent |
| fMet-Met-Met [N-formyl-methionyl-methionyl-methionine] | – | less than that of fMet-Leu-Phe | approximately equipotent |

Reference: PMC2185891 (The Journal of Experimental Medicine, 1980)
